Marks after values point to notes of the source that are not given here.
Legend:
Pythium aphanidermatum = assay: Test A: bluegrass pythium blight, preventive spray on bluegrass seedlings; settings: 200 ppm
Phytophthora infestans = assay: whole plant or invertebrate; format: in vivo; settings: 200 ppm
Plasmopara viticola = assay: Test D: grape downy mildew, spray after inoculation of grape seedlings; format: in vivo; settings: 200 ppm
Excerpt: Upon removal, disease ratings were made. […] A dash (-) indicates no test results.

Septoria tritici = assay: Test J: wheat leaf blotch, preventive spray on wheat seedlings; format: in vivo
Excerpt: A dash (-) indicates no test results.

Rhizoctonia oryzae = assay: Test G: turf brown patch, preventive spray on creeping bent grass seedlings
Description: (the causal agent of turf brown patch) and incubated in a saturated atmosphere at 27° C. for 24 h, and then moved to a growth chamber at 27° C. for 5 days, after which disease ratings were made.

fusarium graminearium = assay: Test I: wheat head scab, preventive spray on wheat seedlings; settings: 200 ppm
Description: (the causal agent of wheat head scab) and incubated in a saturated atmosphere at 20° C. for 72 h, and then moved to a growth chamber at 22° C. for 5 days, after which disease ratings were made.

Sclerotinia sclerotiorum = assay: Test C: cucumber white mold, preventive spray on cucumber seedlings; settings: 200 ppm
Septoria nodorum = assay: Test H: wheat glum blotch, preventive spray on wheat seedlings
Description: (the causal agent of wheat glum blotch) and incubated in a saturated atmosphere at 20° C. for 48 h, and then moved to a growth chamber at 22° C. for 5 days, after which disease ratings were made.

[1] = tested on: Erysiphe graminis f. sp. tritici; assay: Test L: wheat powdery mildew, preventive spray on wheat seedlings
Botrytis cinerea = assay: Test E: tomato botrytis, preventive spray on tomato seedlings
[2] = tested on: Puccinia recondita f. sp. tritici; assay: Test K: wheat leaf rust, preventive spray on wheat seedlings
[3] = tested on: Colletotrichum orbiculare; assay: Test B: cucumber Colletotrichum anthracnose, preventive spray on cucumber seedlings

SMILES	Test A disease control rating (Pythium aphanidermatum) [%]	Test F disease control rating (Phytophthora infestans) [%]	Test D disease control rating (Plasmopara viticola) [%]	Test J disease control rating (Septoria tritici; 40 ppm (*))	Test G disease control rating (Rhizoctonia oryzae; 40 ppm (*))	Test I disease control rating (fusarium graminearium) [%]	Test C disease control rating (Sclerotinia sclerotiorum) [%]	Test H disease control rating (Septoria nodorum; 40 ppm (*))	Test L disease control rating ([1]; 40 ppm (*))	Test E disease control rating (Botrytis cinerea; 40 ppm (*))	Test K disease control rating ([2]; 40 ppm (*))	Test B disease control rating ([3]; 40 ppm (*))	Test J disease control rating (Septoria tritici; 200 ppm) [%]	Test G disease control rating (Rhizoctonia oryzae; 200 ppm) [%]	Test H disease control rating (Septoria nodorum; 200 ppm) [%]	Test L disease control rating ([1]; 200 ppm) [%]	Test E disease control rating (Botrytis cinerea; 200 ppm) [%]	Test K disease control rating ([2]; 200 ppm) [%]	Test B disease control rating ([3]; 200 ppm) [%]
O=c1c(-n2cccn2)nc(Cl)c(-c2c(F)cccc2F)n1CC1CCCO1 (stereo not drawn) [compound 91]	0	0	0	93* %	0* %	0	0	33* %	0* %	92* %	0* %	0* %							
O=c1c(-n2cncn2)nc(Cl)c(-c2c(F)cccc2F)n1CC1CCCO1 (stereo not drawn) [compound 92]	0	0	0	7* %	0* %	0	0	0* %	0* %	0* %	0* %	0* %							
COCC(C)n1c(-c2c(F)cccc2F)c(Cl)nc(-n2cccn2)c1=O (stereo not drawn) [compound 93]	0	60	0	83* %	70* %	0	0	96* %	97* %	79* %	98* %	0* %							
COCC(C)n1c(-c2c(F)cccc2F)c(Cl)nc(-n2cncn2)c1=O (stereo not drawn) [compound 94]	0	0	0	14* %	0* %	0	0	0* %	0* %	0* %	0* %	0* %							
COCCn1c(-c2c(F)cccc2F)c(Cl)nc(-n2cncn2)c1=O [compound 96]	0	0	0	0* %	0* %	0	0	0* %	0* %	0* %	0* %	0* %							
CSCCn1c(-c2c(F)cccc2F)c(Cl)nc(-n2cccn2)c1=O [compound 97]	0	0	64	24* %	0* %	0	0	0* %	0* %	100* %	0* %	0* %							
CSCCn1c(-c2c(F)cccc2F)c(Cl)nc(-n2cncn2)c1=O [compound 98]	0	0	0	26* %	0* %	0	0	0* %	0* %	0* %	0* %	0* %							
O=c1c(-n2cccn2)nc(Cl)c(-c2c(F)cccc2F)n1Cc1ccccc1 [compound 104]	0	0	9			0	0						100	95	100	100	100	100	100
COc1cc(OC)c(-c2c(Cl)nc(-n3cncn3)c(=O)n2CC(C)C)c(OC)c1 [compound 112]	0	0	0	0* %	0* %	57	0	0* %	0* %	0* %	0* %	0* %							
CC(C)Cn1c(-c2c(F)cccc2C(F)(F)F)c(Cl)nc(-n2cncn2)c1=O [compound 113]	0	0	0	2* %	26* %	98	93	0* %	0* %	0* %	0* %	0* %							
CC(C)Cn1c(-c2ccc3c(c2)OCO3)c(Cl)nc(-n2cncn2)c1=O [compound 114]	0	0	0	89* %	0* %	0	0	99* %	0* %	97* %	0* %	0* %							
CC(C)Cn1c(-c2cc(Br)c3c(c2)OCO3)c(Cl)nc(-n2cncn2)c1=O [compound 115]	0	0	0	0* %	0* %	0	0	0* %	0* %	0* %	0* %	0* %							
CC(C)Cn1c(-c2cc(Cl)cc(Cl)c2)c(Cl)nc(-n2cncn2)c1=O [compound 116]	0	53	0	5* %	0* %	0	0	0* %	0* %	0* %	0* %	0* %							
CC(C)Cn1c(-c2ccc(C(F)(F)F)cc2F)c(Cl)nc(-n2cncn2)c1=O [compound 117]	0	0	0	2* %	0* %	83	0	0* %	0* %	0* %	0* %	0* %							
CC(C)Cn1c(-c2ccc(Cl)cc2Cl)c(Cl)nc(-n2cncn2)c1=O [compound 118]	0	16	0			81	98						100	71	92	0	99	91	96
CC(C)Cn1c(-c2ccc3ccccc3c2)c(Cl)nc(-n2cncn2)c1=O [compound 119]	0	0	0	68* %	0* %	76	0	0* %	0* %	0* %	0* %	0* %							

— US20080194585A1, “Fungicidal Pyrazine Derivatives” (priority 2005, published 2008)
